# Target: T1, human neuropeptide Y5 receptor (Homo sapiens, UniProt Q15761)
# T1 construct: expressed in transfected cells; host or cells: HEK-293, stably transfected, G-418 selected; membranes
# T1 sequence (Q15761 1-445): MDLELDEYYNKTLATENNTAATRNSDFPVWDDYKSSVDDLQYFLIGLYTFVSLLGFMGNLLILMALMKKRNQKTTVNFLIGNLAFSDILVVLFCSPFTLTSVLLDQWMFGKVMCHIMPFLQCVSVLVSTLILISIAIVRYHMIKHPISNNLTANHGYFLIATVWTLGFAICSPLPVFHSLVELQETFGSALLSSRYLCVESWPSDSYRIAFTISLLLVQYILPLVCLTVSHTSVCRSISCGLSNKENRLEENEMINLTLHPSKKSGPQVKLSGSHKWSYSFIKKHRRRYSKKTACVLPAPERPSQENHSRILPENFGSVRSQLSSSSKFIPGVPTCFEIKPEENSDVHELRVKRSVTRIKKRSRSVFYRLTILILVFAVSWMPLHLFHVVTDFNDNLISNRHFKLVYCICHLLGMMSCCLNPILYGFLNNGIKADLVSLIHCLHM
# Test: NPY5 HTS centrifugation assay: competition with 125I-PYY for binding to membranes of NPY5-transfected HEK-293 cells
# Conditions: inhibition of 125I-PYY binding; for IC50: values in nM, read-out: IC50 hNPY5; for % Inh NPY5 @ 3 μM: 3 μM test compound
# Experimental: NPY5 HTS Centrifugation Assay
# The compounds described in this invention were evaluated for binding to the human neuropeptide Y5 receptor.
# The human NPY5 receptor cDNA (Genbank Accession number U66275) was inserted into the vector pClneo (Invitrogen) and transfected into human embryonic kidney cells (HEK-293) via Calcium phosphate method (Cullen 1987). Stably transfected cells were selected with G-418 (600 ug/mL). Stably transfected cells served as the source for the membranes for the NPY5 receptor binding assay.
# NPY5-transfected HEK293 cells were grown to confluence in 150 cm^2 culture dishes. Cells were washed once with phosphate-buffered saline (Gibco Cat# 14040-133). Cells were then incubated in phosphate-buffered saline without Calcium and without Magnesium, supplemented with 2 mM EDTA. Cells were incubated for 10 minutes at room temperature and the cells were collected by repetitive pipetting. Cells were formed into pellets and frozen at −80 until needed. Frozen pellets were homogenized with a polytron at full speed for 12 seconds in a homogenization buffer (20 mM Tris HCl, 5 mM EDTA, pH 7.4). Homogenates were centrifuged for 5 minutes at 4° C. at 200 g. Supernatants were transferred to corex tubes and centrifuged for 25 minutes at 28,000 g. Pellets were re-suspended in Binding (20 mM HEPES, 10 mM NaCl, 0.22 mM KH2PO4, 1.3 mM CaCl2, 0.8 mM MgSO4, pH 7.4). Membranes were kept on ice until use.
# A competition binding assay, known to those skilled in the art, was used in which the test compounds (aminopyrazoles of formula (I) compete with ^1251I-PYY for binding to cell membranes. In simple terms, less ^125I-PYY bound to the membranes implies that the test compound is a good inhibitor (competitor). Bound ^1251I-PYY is determined by centrifugation the membranes, aspirating supernatant, washing away residual ^125I-PYY and subsequently counting the bound sample in a γ-counter.
# Procedure for Radioligand Binding Assay
# Compounds to be tested were prepared as 10× stocks in binding buffer and added first to assay tubes (RIA vials, Sarstedt). Twenty (20) μL of each 10× compound stock was pipetted into vials and 80 μL of ^125I-PYY (NEN catalog number NEX240), which had been diluted to a concentration of 200 pM in 0.25% BSA in binding buffer, was added to the compound tubes (final concentration of ^125I-PYY is 80 pM). To each tube was added 100 μL of membranes and the mixture was agitated by pipetting 2 times. Samples were incubated for 1 hr at room temperature. Aluminum cast plates (Sarstedt) containing the vials were centrifuged 10 minutes at 3200 rpm in a Sorvall RT6000. Supernatant was then aspirated. To each vial was added 400 μL PBS and the vial was then aspirated again. Vials were put in carrier polypropylene 12×75 tube and counted in gamma counter (Packard). Non-specific binding was determined in the presence of 300 nM NPY. Percent inhibition of ^125I-PYY binding was calculated by subtracting non-specific binding from the test samples (compounds of formula (I)), taking these counts and dividing by total binding, and multiplying by 100. Inhibitory concentration values (IC50) of compounds that show appreciable inhibition of ^125I-PYY binding were calculated by obtaining percent inhibition of ^125I-PYY binding values at different concentrations of the test compound, and using a graphing program such as GraphPad Prism (San Diego, Calif.) to calculate the concentration of test compound that inhibits fifty-percent of ^125I-PYY binding (Table 2). These operations are known to those skilled in the art.
IC50 [nM],% Inh NPY5 @ 3 μM [%],Structure (SMILES)
20,,Nc1ccccc1S(=O)(=O)NCC1CCC(c2cc(N)n(-c3cccc(C(F)(F)F)c3)n2)CC1 (centres unmarked) [Cmpd 83]
100,,COc1ccc(S(=O)(=O)Nc2ccc(-c3cc(N)n(-c4ccccc4)n3)cc2)cc1 [Cmpd 84]
,38.00,COc1ccc(S(=O)(=O)Nc2ccc(-c3cc(N)n(-c4ccc(C(F)(F)F)cn4)n3)cc2)cc1 [Cmpd 85]
709,,COc1ccc(S(=O)(=O)Nc2ccc(-c3cc(N)n(-c4nccc(C(F)(F)F)n4)n3)cc2)cc1 [Cmpd 86]
30,,COc1ccc(S(=O)(=O)Nc2ccc(-c3cc(N)n(-c4cccc(N(C)C)c4)n3)cc2)cc1 [Cmpd 87]
22,,CN(C)c1cccc(-n2nc(-c3ccc(NS(=O)(=O)c4ccccc4)cc3)cc2N)c1 [Cmpd 88]
,48.00,COc1ccc(S(=O)(=O)Nc2ccc(-c3cc(N)n(-c4cc(C(F)(F)F)cc(C(F)(F)F)c4)n3)cc2)cc1 [Cmpd 89]
683,,Nc1cc(-c2ccc(NS(=O)(=O)c3ccccc3)cc2)nn1-c1cc(C(F)(F)F)cc(C(F)(F)F)c1 [Cmpd 90]
37,,COc1ccc(S(=O)(=O)Nc2ccc(-c3cc(N)n(-c4ccc(F)cc4)n3)cc2)cc1 [Cmpd 91]
28,,Nc1cc(-c2ccc(NS(=O)(=O)c3ccccc3)cc2)nn1-c1ccc(F)cc1 [Cmpd 92]
38,,Nc1cc(-c2ccc(NS(=O)(=O)c3ccccc3)cc2)nn1-c1ccccc1 [Cmpd 93]
